Experimental data: publication PMC12044326 (Clinical Pharmacology in Drug Development, 2025)

Columns and labels:
CYP2C19 = CYP2C19 (Homo sapiens, UniProt P33261); experiment: Reversible CYP inhibition in human liver microsomes
UGT2B4 = biological target: T1, UGT2B4 (Homo sapiens, UniProt P06133); details: both, 20 min, pH 7.4
T1 sequence (P06133 24-528): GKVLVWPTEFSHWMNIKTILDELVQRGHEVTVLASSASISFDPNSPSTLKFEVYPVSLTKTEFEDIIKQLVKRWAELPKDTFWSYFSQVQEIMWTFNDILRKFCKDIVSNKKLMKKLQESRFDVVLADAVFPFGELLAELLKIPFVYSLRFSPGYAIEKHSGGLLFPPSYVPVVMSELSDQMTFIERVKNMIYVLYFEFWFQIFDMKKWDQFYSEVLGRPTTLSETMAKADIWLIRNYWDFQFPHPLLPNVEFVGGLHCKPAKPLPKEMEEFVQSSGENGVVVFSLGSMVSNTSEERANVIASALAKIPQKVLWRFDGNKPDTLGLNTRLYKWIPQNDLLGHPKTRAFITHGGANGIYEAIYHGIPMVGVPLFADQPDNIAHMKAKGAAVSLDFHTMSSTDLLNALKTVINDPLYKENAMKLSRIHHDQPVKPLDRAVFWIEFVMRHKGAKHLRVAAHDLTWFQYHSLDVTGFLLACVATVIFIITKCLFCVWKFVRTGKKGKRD

UGT1A9 [1] = biological target: T2, UGT1A9 (Homo sapiens, UniProt O60656); details: both, 20 min, pH 7.4
T2 sequence (O60656 26-530): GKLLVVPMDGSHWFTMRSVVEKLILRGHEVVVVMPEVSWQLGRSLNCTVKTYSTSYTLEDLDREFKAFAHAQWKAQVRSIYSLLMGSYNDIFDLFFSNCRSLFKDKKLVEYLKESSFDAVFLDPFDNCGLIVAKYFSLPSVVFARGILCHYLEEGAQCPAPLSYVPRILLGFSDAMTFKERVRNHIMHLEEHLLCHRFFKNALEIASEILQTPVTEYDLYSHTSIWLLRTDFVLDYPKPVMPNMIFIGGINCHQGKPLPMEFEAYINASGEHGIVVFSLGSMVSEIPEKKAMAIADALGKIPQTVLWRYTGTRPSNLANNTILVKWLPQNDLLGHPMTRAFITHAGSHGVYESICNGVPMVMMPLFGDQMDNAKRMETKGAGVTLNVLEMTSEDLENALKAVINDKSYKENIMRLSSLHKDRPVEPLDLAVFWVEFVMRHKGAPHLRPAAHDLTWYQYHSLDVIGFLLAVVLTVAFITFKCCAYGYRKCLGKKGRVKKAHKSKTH

OATP1B1 = biological target: T3, OATP1B1 (Homo sapiens, UniProt Q9Y6L6)
T3 sequence (Q9Y6L6 1-691): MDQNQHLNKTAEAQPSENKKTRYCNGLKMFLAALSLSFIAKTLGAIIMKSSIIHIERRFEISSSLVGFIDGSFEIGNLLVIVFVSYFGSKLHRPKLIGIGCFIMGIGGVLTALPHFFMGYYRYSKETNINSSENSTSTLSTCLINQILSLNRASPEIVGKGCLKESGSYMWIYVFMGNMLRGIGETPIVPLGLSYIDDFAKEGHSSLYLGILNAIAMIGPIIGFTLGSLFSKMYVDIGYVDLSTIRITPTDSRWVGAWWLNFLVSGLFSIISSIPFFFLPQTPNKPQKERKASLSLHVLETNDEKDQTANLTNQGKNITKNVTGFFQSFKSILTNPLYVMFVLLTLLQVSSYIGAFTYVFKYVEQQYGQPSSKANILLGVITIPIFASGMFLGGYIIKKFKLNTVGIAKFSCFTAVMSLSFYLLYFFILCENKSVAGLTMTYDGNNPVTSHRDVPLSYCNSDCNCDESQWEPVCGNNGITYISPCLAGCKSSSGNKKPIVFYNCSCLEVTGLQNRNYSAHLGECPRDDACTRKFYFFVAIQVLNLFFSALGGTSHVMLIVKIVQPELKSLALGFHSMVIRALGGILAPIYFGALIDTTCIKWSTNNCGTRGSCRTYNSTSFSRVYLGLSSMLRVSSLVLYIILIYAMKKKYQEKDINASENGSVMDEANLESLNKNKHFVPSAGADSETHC

CYP3A4 = details: predicted by combining in vitro phenotyping and human ADME data; cited from earlier work
[2] = system: cholesterol 24‐hydroxylase (CH24H); details: 100, 200, and 300 mg BID, cited from earlier work
UGT1A9 [3] = biological target: T2, UGT1A9; design: with alamethicin-pretreated HLMs (0.5 mg/mL); tissue Sekisui-XenoTech; host or cells: pooled human liver microsomes (200 donors); details: predicted by combining in vitro phenotyping and human ADME data; cited from earlier work

CYP2C19, sequence (P33261 whole entry): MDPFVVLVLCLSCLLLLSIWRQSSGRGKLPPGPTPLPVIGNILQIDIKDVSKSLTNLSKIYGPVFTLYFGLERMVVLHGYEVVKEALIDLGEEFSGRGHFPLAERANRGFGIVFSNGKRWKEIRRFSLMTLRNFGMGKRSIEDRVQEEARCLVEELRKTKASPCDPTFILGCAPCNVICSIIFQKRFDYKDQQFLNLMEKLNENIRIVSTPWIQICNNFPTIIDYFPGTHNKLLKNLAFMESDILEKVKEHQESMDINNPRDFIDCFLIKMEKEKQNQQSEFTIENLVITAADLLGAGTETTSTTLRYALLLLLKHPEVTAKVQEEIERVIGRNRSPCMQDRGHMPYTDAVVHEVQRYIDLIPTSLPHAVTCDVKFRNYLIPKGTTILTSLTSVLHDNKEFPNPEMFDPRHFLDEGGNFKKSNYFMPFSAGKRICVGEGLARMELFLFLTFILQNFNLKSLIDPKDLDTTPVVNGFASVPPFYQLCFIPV

O=C(c1cccnc1-c1ccncc1)N1CCC(O)(Cc2ccccc2)CC1 [Soticlestat]
Ki (CYP2C19): 9.5 µM
fumic (CYP2C19; human): 0.88
inhibition of CYP2C19 (CYP2C19; microsomes): low double‐digit micromolar values
fm of total UGT mediated glucuronidation via UGT2B4 (UGT2B4): ~90%
fm of total UGT mediated glucuronidation via UGT1A9 (UGT1A9 [1]): ~10%
substrate for OATP1B1 (OATP1B1): not a substrate
fm by CYP3A (CYP3A4): 9.5%
24HC reduction ([2]; steady state): ≥ 60%
steady‐state enzyme occupancy [2]: ≥ 65%
fm by UGT1A9 (UGT1A9 [3]): 9.3%
